Results published in the NIST ThermoML archive (doi:10.1016/j.fluid.2006.10.023).
Several values for one entry are separate records, joined by “and”; a condition that tells them apart may be missing. Equal values may be shown once. ± gives the expanded uncertainty stated by the source.

Settings: Liquid, Closed cell (Static) method

SMILES | vapor or sublimation pressure (253.15 K) | vapor or sublimation pressure (273.15 K) | vapor or sublimation pressure (293.15 K)
C1CC1 [cyclopropane] | 171.3 ± 2.1 kPa and 171.2 ± 2.1 kPa | 344.1 ± 2.3 kPa and 344.7 ± 2.3 kPa | 631.7 ± 2.8 kPa and 632.2 ± 2.8 kPa
FC(F)C(F)(F)F [pentafluoroethane] | 337.3 ± 2.3 kPa | 672.1 ± 2.9 kPa | 1204.7 ± 4.1 kPa
FCC(F)(F)F [1,1,1,2-tetrafluoroethane] | 133.5 ± 2.1 kPa | 291.8 ± 2.2 kPa | 572.1 ± 2.6 kPa
